From patent US9567347B2, “Use of small molecule inhibitors targeting the interaction between RAC GTPase and p67(phox)” (CHILDREN'S HOSPITAL MEDICAL CENTER, priority 2012, dated 2017)

What was measured:
[1] = test system: Pak; experiment: immunoblot of phosphorylated Pak; type: cell-based, human; settings: 18 hr treatment
Procedure: Whole-cell lysates were prepared by cell extraction using lysis buffer containing 20 mM Tris-HCl (pH 7.6), 100 mM NaCl, 10 mM MgCl2, 1% Triton X-100, 0.2% sodium deoxycholate, 1 mM phenylmethylsulfonyl fluoride, 10 μg/mL of leupeptin, 1 μg/mL of aprotinin, and 1 mM dithiothreitol for 30 min. Equal amounts of protein, as determined by Bradford assay, were resolved by SDS-PAGE. Specific proteins were detected by standard 9 immunoblotting procedures using the following primary antibodies: (Cell Signaling, 1:500 dilution) phospho-PAK1 (Ser144)/PAK2 (Ser141), (Sigma-Aldrich 1:500) β-Actin.
To analyze the biochemical specificity of these lead inhibitors on the effector pathways of active Rac1, undifferentiated HL-60 cells were treated with Phox-I1, Phox-I2, or NSC23766 for 18 hr. Immunoblot of the cell lysates was performed to probe the activity of Pak, a Rac effector other than p67^phox (FIG. 4B).

[2] = test system: undifferentiated HL-60 cells; experiment: apoptosis analysis by FACS (Annexin V / 7-AAD); type: cell-based, human; settings: 20 or 100 μM
Procedure: (§1) Cells (5×10^5) were harvested and processed for Annexin V/7AAD staining according to manufacturer's protocol (Becton Dickinson). Flow cytometry data were acquired on a FACS Canto bench-top flow cytometer (Becton Dickinson) and the cell cycle distributions were determined by […] using Flo-Jo software (Bosco et al (2010) Blood 115, 3320-3328, hereby incorporated by reference in its entirety). For ROS production assay, primary murine neutrophils or dHL60 cells were incubated with compound for 2 hours prior to addition of H2-DCFDA according to manufacturer's instructions (Molecular Probes). Cells were then stimulated with 10 μM fMLP (Sigma), 1 mM CaCl2, and 1.5 mM MgCl2 for 15 minutes prior to wash and FACS analysis for mean fluorescence intensity. Non-fMLP stimulated control values were subtracted from all samples before normalization to fMLP-stimulated, vehicle control treated sample in order to display percent ROS inhibition.
In order to determine potency and cytotoxicity of Phox-I1 and Phox-I2, the levels of apoptosis were assessed in undifferentiated HL-60 cells treated with 20 or 100 μM Phox-I1, Phox-I2, or NSC23766 by FACS analysis for Annexin V (FIG. 4A).

[3] = test system: dHL-60 cells; experiment: antioxidant (ROS scavenger) test in dHL-60 cells pre-stimulated with fMLP; type: cell-based, human; settings: fMLP 30 min prior to treatment
Procedure: (A) Apoptosis analysis by FACS of HL-60 cells treated with compound or vehicle control for 2 hours prior to 7-AAD and Annexin V staining. (B) HL-60 cells from A were harvested and lysates were immunoblotted for levels of pPAK, and actin was used as a control for loading. (C) F-actin reorganization in freshly isolated fMLP-stimulated primary murine neutrophils was analyzed. […] Cells were exposed to a 10 μM dose of Phox-I1, Phox-I2, and Analog 13, and 200 nM nocodazole. (D) The effect of Phox-I on NOX4 mediated ROS production was tested in primary murine neutrophils transfected with a NOX4 expressing plasmid. 10 μM Phox-I1 was applied to the cells for 30 min prior to ROS assay by luminol chemiluminescence in the presence of HRP. The fMLP-stimulated ROS activity in the presence or absence of 10 uM Phox-I1 was measured in parallel. (E) The antioxidant abilities of these lead compounds were tested by prestimulating dHL-60 cells with fMLP for 30 minutes prior to treatment with Phox-I1 or Phox-I2. Levels of superoxide were analyzed by DCFDA assay and FACS. NAC, apocyanin, DPI, and NSC23766 treated cells served as controls. […] (G) For stability assay, DMSO-differentiated HL-60 cells were treated with 20 μM dose of compound for the indicated time period prior to fMLP stimulation and DCFDA ROS production assay by FACS analysis.
Phox-I1 was then applied to primary murine neutrophils expressing the constitutively active NOX4. […] To further rule out that Phox-I1 and Phox-I2 may simply act as scavengers of ROS, dHL-60 cells were pre-stimulated with fMLP for 30 min prior to treatment with Phox-I1 or Phox-I2.

[4] = test system: dHL-60 cells; experiment: DCFDA ROS assay after wash and recovery (affinity assay); type: cell-based, human; settings: 2 hr treatment, recovery 4 hr or 2 hr
Procedure: (A) Apoptosis analysis by FACS of HL-60 cells treated with compound or vehicle control for 2 hours prior to 7-AAD and Annexin V staining. (B) HL-60 cells from A were harvested and lysates were immunoblotted for levels of pPAK, and actin was used as a control for loading. (C) F-actin reorganization in freshly isolated fMLP-stimulated primary murine neutrophils was analyzed. […] Cells were exposed to a 10 μM dose of Phox-I1, Phox-I2, and Analog 13, and 200 nM nocodazole. (D) The effect of Phox-I on NOX4 mediated ROS production was tested in primary murine neutrophils transfected with a NOX4 expressing plasmid. 10 μM Phox-I1 was applied to the cells for 30 min prior to ROS assay by luminol chemiluminescence in the presence of HRP. The fMLP-stimulated ROS activity in the presence or absence of 10 uM Phox-I1 was measured in parallel. (E) The antioxidant abilities of these lead compounds were tested by prestimulating dHL-60 cells with fMLP for 30 minutes prior to treatment with Phox-I1 or Phox-I2. Levels of superoxide were analyzed by DCFDA assay and FACS. NAC, apocyanin, DPI, and NSC23766 treated cells served as controls. (F) For affinity assay, DMSO-differentiated HL-60 cells were treated with standard effective dose of indicated compound for 2 hours, washed, and allowed to recover in normal media for 4 hours or 2 hours prior to fMLP stimulation and DCFDA ROS production assay by FACS analysis. (G) For stability assay, DMSO-differentiated HL-60 cells were treated with 20 μM dose of compound for the indicated time period prior to fMLP stimulation and DCFDA ROS production assay by FACS analysis.
Next, a stability experiment was performed to determine the duration of effectiveness of the compound in suppressing neutrophils. To analyze the relative affinities of these compounds for the p67^phox target in cells, DCFDA ROS production assays were performed in dHL-60 cells treated with compound for 2 hr followed by wash and recovery for 4 hr or 2 hr in normal media prior to ROS production analysis.

[5] = test system: primary murine neutrophils; experiment: F-actin immunofluorescence, polarization upon fMLP stimulation; type: cell-based, mouse; settings: 200 nM; control 80%
Procedure: Cells were pretreated with compound for 40 minutes prior to wash, and resuspended in HBSS with compound. Cells were allowed to adhere to fibronectin (Sigma Aldrich) coated glass coverslips (15 min) and then stimulated with 100 nM fMLP (3 min). Coverslips were then fixed with 3.7% paraformaldehyde (Sigma Aldrich) and then staining for […] was performed with rhodamine phalloidin per the manufacturer's instructions (Molecular Probes). Another method of addressing Rac-signaling specificity in neutrophils is by monitoring their ability to polarize actin to the leading edge upon fMLP stimulation. Neither Phox-I1, Phox-I2, nor an analog 13 (all at 10 μM), were able to block the Rac-mediated dynamic process of F-actin polarization to the leading edge of primary murine neutrophils as observed by F-actin immunofluorescence imaging (FIG. 4C, left panel). F-actin polarization was evident in about 80% of each treatment group of cells as in the control, untreated cells (FIG. 4C, right panel).

[6] = test system: fMLP-activated primary murine neutrophils; experiment: Nitroblue tetrazolium (NBT) assay; type: cell-based, mouse; settings: for ROS inhibition (NBT positive cells): 10 μM, FIG. 9
Procedure: Primary neutrophils from mouse bone marrow were subjected to fMLP stimulation in the presence or absence of various chemicals for 5 min. Cells were stained for NBT activity as previously described in the incorporated materials of Filippi et al. (2004) to reveal relative ROS production.
To complement the DCFDA based FACS analysis and the luminol chemiluminescence method, nitroblue tetrazolium (NBT) assays were performed in fMLP-activated primary murine neutrophils (FIG. 3C).
The NBT assay was performed in primary murine neutrophils to measure ROS neutrophil production. […] Each compound was used at 10 μM.

[7] = test system: neutrophils; experiment: toxicity to neutrophils; type: cell-based, mouse
[8] = test system: fMLP-stimulated differentiated HL-60 cells; experiment: H2-DCFDA FACS ROS production assay in fMLP-stimulated differentiated HL-60 cells; type: cell-based, human; settings: treated 2 hours, FIG. 5B
Procedure: HL-60 cells were propagated in RPMI 1640 medium containing 10% heat inactivated fetal bovine serum, 2 mM L-glutamine, 100 U/mL penicillin/streptomycin at 37° C. in air containing 5% CO2. For differentiation, HL-60 cells were cultured in 1.3% dimethyl sulfoxide (DMSO) as previously described (Servant, G., et al. (1999) Mol Biol Cell 10, 1163-1178, hereby incorporated by reference in its entirety). Primary murine neutrophils were isolated from C57Bl/6 mouse bone marrow according to a published protocol (Filippi et al., (2004) Nat Immunol 5, 744-751, hereby incorporated by reference in its entirety) using a discontinuous Percoll (Pharmacia) gradient and were utilized immediately in experiments. Human neutrophils were obtained from fresh blood (IRB #2010-1855, Cincinnati Children's Hospital medical Center) following a well established protocol using density gradient separation from whole blood (Oh et al. (2008) J Vis Exp., 17, pii: 745, hereby incorporated by reference in its entirety).
as §1
To validate the hits from preliminary screening in cells, several cellular functional assays were performed using different cell types to measure the effect of compounds on inhibition of ROS production. ROS levels were first analyzed by fluorescence-activated cell sorting (FACS) in HL-60 pre-incubated with compounds for 2 hr prior to stimulation of ROS production. The p67^phox inhibitor, Phox-I1, was tested against NAC (a ROS scavenger), DPI (a broad range inhibitor of NADPH oxidase), and NSC23766 (a Rac-GTP inhibitor; FIG. 2A). […] H2O2 added to the cells was included as a positive control for ROS measurement. Second, to test the capacity of Phox-I1 to inhibit ROS production in a primary cell context, primary murine neutrophils isolated from mouse bone marrow were treated with increasing concentrations of Phox-I1 and the efficacy of inhibition of fMLP-stimulated ROS production was analyzed. DPI treatment was included as a positive control for inhibition of ROS production (FIG. 2B). […] Next, to ascertain the optimal effective dose for ROS inhibition in cells, a dose titration series of Phox-I1 was administered to dHL-60 cells (FIG. 2C).

[9] = test system: LPS-induced ALI in mice; settings: 5 mg/kg i.p. every 8 hours, 24 hours after LPS
Procedure: FIG. 8. […] Mice were challenged with LPS or vehicle via intratracheal administration and treated or not with compound 100 (indicated as “NOX2-I”; 5 mg/kg, 3 injections every 8 hours). (A) Isoprostane, as an indication of ROS production, was measured in lung homogenates 24 hours following LPS challenge by ELISA. (B) Lung histology was performed 24 hours after LPS challenge. (n=3 mice per group). Representative images of histology are shown.
One life-threatening consequence of hemorrhagic shock is acute lung injury (ALI), which is associated with infiltration of neutrophils and release of ROS. A model of LPS-induced ALI was used in mice to test efficacy of the difluoro compound 100 in vivo.
Mice (N=3 per group) were treated with LPS (100 ng in 80 μl PBS) or PBS (vehicle) employing oral-tracheal intubation. Following challenge, the mice were injected i.p. with 5 mg/kg of compound 100, every 8 hours. The relative level of ROS release in the lungs upon LPS challenge was assessed by measuring 8-isoprostane by ELISA in lung tissue homogenates. Isoprostanes are a family of eicosanoids produced by the oxidation of tissue phospholipids by oxygen radicals. The amount of 8-isoprostane generated is thus an indication of ROS production.

CCN(CC)CCCC(C)Nc1nc(C)cc(Nc2ccc3nc(C)cc(N)c3c2)n1 (centres unmarked) [NSC23766, reference compound]
phosphorylated Pak levels [1]: abrogated | cell apoptosis (Annexin V) [2]: no detectable effect on cell apoptosis | levels of superoxide already produced [3]: do not affect | ROS inhibition after wash [4]: retained the ability to inhibit ROS production

COC(=O)Nc1nc2ccc(C(=O)c3cccs3)cc2[nH]1 [Nocodazole, reference compound]
cells with F-actin polarization [5]: ~20%

Fc1ccc2c(c1)[C@@H]1C=CC[C@@H]1[C@H](c1cccc(Cl)c1)N2 [Compound 106]
ROS inhibition (NBT positive cells) [6]: highest level of ROS inhibition

Fc1cccc([C@@H]2Nc3ccc(Br)cc3[C@@H]3C=CC[C@@H]32)c1 [Compound 102]
ROS inhibition (NBT positive cells) [6]: highest level of ROS inhibition

CC(=O)N[C@@H](CS)C(=O)O [NAC, reference compound]
ROS inhibition after wash [4]: retained the ability to inhibit ROS production

COc1cc(C(C)=O)ccc1O [apocyanin]
levels of superoxide already produced [3]: do not affect

Fc1cccc(C2Nc3ccc(F)cc3C3C=CCCC32)c1 (centres unmarked) [Compound 109]
toxicity to neutrophils [7]: toxic to neutrophils

c1ccc2c(c1)[I+]c1ccccc1-2 [DPI, diphenyleneiodonium]
levels of superoxide already produced [3]: do not affect

Fc1ccc2c(c1)[C@@H]1C=CC[C@@H]1[C@H](c1ccc(Cl)s1)N2 [Compound 103]
ROS inhibition (NBT positive cells) [6]: highest level of ROS inhibition

Fc1cccc(C2Nc3ccc(F)cc3C3C=CCC32)c1 (centres unmarked) [Compound 100]
ROS inhibitory activity, Phox-I2 analogs [8]: retain activity | superoxide inhibition (NBT), Phox-I2 analogs ([6]; FIG. 5C): profound superoxide inhibition | lung histology: neutrophil infiltration, alveoli wall thickness, lung architecture [9]: attenuated

Fc1cccc([C@H]2Nc3ccc(F)cc3[C@@H]3OCCC[C@H]23)c1 [Compound 101]
ROS inhibition (NBT positive cells) [6]: highest level of ROS inhibition | ROS inhibition, dose response (NBT) ([6]; 0.1 to 10 μM, FIG. 10): most potent ROS inhibitor
